Reference: PMC3358308 (2012)

Experiments:
[1] = test system: LD (DNA, duplex) GCGCAATTGCGC; experiment: UV-Vis absorption, fluorescence; settings: K+ 50 mM (KCl); 10 mM Tris-HCl pH 7.0, 1 mM EDTA; 5 µM compound, 10 µM strand; weak new band at 682 nm
[2] = test system: Hum24 (DNA, G4) TTAGGGTTAGGGTTAGGGTTAGGG; experiment: UV-Vis absorption titration, Job plot, fluorescence; settings: K+ 50 mM (KCl); 10 mM Tris-HCl pH 7.0, 1 mM EDTA, 25 °C; 5 µM compound; Scatchard two-site, constants not given
[3] = test system: M3Q (DNA, G4) GAGGGAGGGAGGGAGAGGGA; experiment: as above; settings: K+ 50 mM (KCl); 10 mM Tris-HCl pH 7.0, 1 mM EDTA, 25 °C; 5 µM compound; Scatchard two-site, constants not given
[4] = test system: KRAS (DNA, G4) AGGGCGGTGTGGGAAGAGGGAAGAGGGGGAGG; experiment: as above; settings: K+ 50 mM (KCl); 10 mM Tris-HCl pH 7.0, 1 mM EDTA, 25 °C; 5 µM compound; Scatchard two-site, constants not given
[5] = test system: Oxy28 (DNA, G4) GGGGTTTTGGGGTTTTGGGGTTTTGGGG; experiment: as above; settings: K+ 50 mM (KCl); 10 mM Tris-HCl pH 7.0, 1 mM EDTA, 25 °C; 5 µM compound; Scatchard two-site, constants not given

- binding [1]: weak
- binding [2]: yes
- binding [3]: yes
- binding [4]: yes
- binding [5]: yes
Structure (SMILES): C[N+]1(CCOc2ccc(-c3c4nc(c(-c5ccc(OCC[N+]6(C)CCCCC6)cc5)c5ccc([nH]5)c(-c5ccc(OCC[N+]6(C)CCCCC6)cc5)c5nc(c(-c6ccc(OCC[N+]7(C)CCCCC7)cc6)c6ccc3[nH]6)C=C5)C=C4)cc2)CCCCC1
